{"source": "patent US20260240835A1", "about": "(priority 2022, published 2026)", "key": {"[1]": {"assay": "Pharmacokinetics in moderate renal impairment versus matched controls", "text": "(§1) References used are the matched healthy subjects for renal and hepatic impairment studies, and extensive or ultra-extensive CYP2D6 metabolizers respectively."}, "[2]": {"assay": "Pharmacokinetics in moderate hepatic impairment versus matched healthy subjects", "assay_type": "in vivo, human", "source_text": "Data are GMRs and 90% Cls. References used are the matched healthy subjects for renal and hepatic impairment studies, and extensive or ultra-extensive CYP2D6 metabolizers respectively."}, "[3]": {"assay": "Solubility of the powder in water"}, "[4]": {"assay": "Pharmacokinetics in CYP2D6 poor metabolizers versus extensive metabolizers", "conditions": "12 poor metabolizers treated with the subject combination in efficacy trials", "text": "Approximately 7% to 10% of Caucasians and 3% to 8% of African Americans lack the capacity to metabolize CYP2D6 substrates and are classified as poor metabolizers.\nas §1"}, "[5]": {"assay": "Effect of food on pharmacokinetics of the subject combination"}, "[6]": {"assay": "Steady state pharmacokinetics after administration of the subject combination", "conditions": "for dose proportionality of changes in AUC and Cmax at steady state: co-administered with bupropion; for AUC0-12 relative to that of bupropion / Cmax relative to that of bupropion / time post-dose at which Cmax of the metabolite occurs: after administration of the subject combination; for apparent elimination half-life of metabolite: subject combination"}, "[7]": {"assay": "Co-administration of paroxetine and the subject combination (drug interaction)"}, "[8]": {"system": "patients with treatment-resistant depression or MDD with acute suicidal ideation or behavior", "conditions": "cited from earlier work"}, "[9]": {"conditions": "human, in vivo"}, "[10]": {"conditions": "7 subjects with moderate (GFR 30-60 mL/min) renal impairment vs 6 matched controls"}, "[11]": {"conditions": "given as the subject combination"}, "[12]": {"conditions": "20 mg paroxetine, tablet of Example 4 twice daily, vs tablet without paroxetine"}}, "note": "Where a name gives a salt, the structure may show the parent alone. Read-outs that look alike come from different tables or passages of the source."}
{"molecule": "CC(NC(C)(C)C)C(=O)c1cccc(Cl)c1", "note": "(racemic) [bupropion]", "values": [{"measurement": "increase in exposure versus matched controls with normal renal function", "setting": "[1]; human, in vivo", "value": "approximately 2 fold"}, {"measurement": "reduction in clearance versus matched controls with normal renal function", "setting": "[1]; human, in vivo", "value": 50, "unit": "%"}, {"measurement": "AUC0-12 and Cmax compared with healthy patients", "setting": "[2]; human, in vivo", "value": "not significantly different"}]}
{"molecule": "COc1ccc2c(c1)[C@]13CCCC[C@@H]1[C@H](C2)N(C)CC3", "note": "[Dextromethorphan hydrobromide, morphinan, 3-methoxy-17-methyl-, (9α, 13α, 14α), hydrobromide monohydrate]", "values": [{"measurement": "solubility in water", "setting": "[3]", "value": "sparingly soluble"}]}
{"molecule": "COc1ccc2c(c1)[C@]13CCCC[C@@H]1[C@H](C2)N(C)CC3", "note": "[dextromethorphan]", "values": [{"measurement": "increase in exposure versus matched controls with normal renal function", "setting": "[1]; [10]", "value": "approximately 2 fold"}, {"measurement": "reduction in clearance versus matched controls with normal renal function", "setting": "[1]; [10]", "value": 50, "unit": "%"}, {"measurement": "AUC0-12 and Cmax compared with healthy patients", "setting": "[2]; patients having moderate hepatic impairment (Group 2)", "value": "not significantly different"}, {"measurement": "steady state plasma concentrations compared with non-poor metabolizers", "setting": "[4]", "value": "generally higher"}, {"measurement": "change in Cmax when administered with food", "setting": "[5]", "value": "unchanged"}, {"measurement": "decrease in AUC0-12 when administered with food", "setting": "[5]", "value": 14, "unit": "%"}, {"measurement": "dose proportionality of changes in AUC and Cmax at steady state", "setting": "[6]; varying doses of bupropion (75 to 150 mg)", "value": "less than dose-proportional"}, {"measurement": "dose proportionality of changes in AUC and Cmax at steady state", "setting": "[6]; varying doses of dextromethorphan (30 to 60 mg)", "value": "greater than dose-proportional"}, {"measurement": "increase in mean elimination half-life as compared to dextromethorphan given without bupropion", "setting": "[6]; following 8 days of administration of the subject combination in extensive metabolizers", "value": "approximately 3 fold"}, {"measurement": "accumulation ratio at steady state based on AUC0-12", "setting": "[6]; [11]", "value": "about 32"}, {"measurement": "accumulation ratio at steady state based on Cmax", "setting": "[6]; [11]", "value": "about 20"}, {"measurement": "increase in AUC0-12 with concomitant paroxetine", "setting": "[7]; [12]", "value": 2.69, "unit": "fold"}, {"measurement": "increase in Cmax with concomitant paroxetine", "setting": "[7]; [12]", "value": 2.38, "unit": "fold"}, {"measurement": "change in overall exposure caused by paroxetine", "setting": "[7]; 29 healthy volunteers, paroxetine co-administered with the subject combination", "value": 2.5, "unit": "fold"}]}
{"molecule": "CC(NC(C)(C)C)C(O)c1cccc(Cl)c1", "note": "(centres unmarked) [erythrohydroxybupropion]", "values": [{"measurement": "AUC0-12 relative to that of bupropion", "setting": "[6]", "value": "about 1.2 times"}, {"measurement": "Cmax relative to that of bupropion", "setting": "[6]", "value": "approximately equal to"}, {"measurement": "time post-dose at which Cmax of the metabolite occurs", "setting": "[6]", "value": "approximately 4 hours"}, {"measurement": "apparent elimination half-life of metabolite", "setting": "[6]", "value": "~44", "unit": "h"}]}
{"molecule": "CN[C@]1(c2ccccc2Cl)CCCCC1=O", "note": "[esketamine]", "values": [{"measurement": "incidence of sedation (MOAA/S score <5) compared to placebo plus oral antidepressant", "setting": "[8]; adults with MDD with acute suicidal ideation or behavior, plus oral antidepressant", "value": "higher incidence of sedation"}, {"measurement": "Incidence of Sedation (MOAA/S score <5)", "setting": "[8]; fixed-dose study, TRD patients <65 years, 56 mg + oral AD", "value": 50, "unit": "%"}, {"measurement": "Incidence of Sedation (MOAA/S score <5)", "setting": "[8]; fixed-dose study, TRD patients <65 years, 84 mg + oral AD", "value": 61, "unit": "%"}, {"measurement": "Incidence of Sedation (MOAA/S score <5)", "setting": "[8]; flexible-dose study, TRD patients ≥65 years, 28 to 84 mg + oral AD", "value": 49, "unit": "%"}]}
{"molecule": "C[C@H]1NC(C)(C)CO[C@]1(O)c1cccc(Cl)c1", "note": "[hydroxybupropion]", "values": [{"measurement": "AUC0-12 relative to that of bupropion", "setting": "[6]", "value": "about 19 times"}, {"measurement": "Cmax relative to that of bupropion", "setting": "[6]", "value": "approximately 14 times"}, {"measurement": "time post-dose at which Cmax of the metabolite occurs", "setting": "[6]", "value": "about 3 hours"}, {"measurement": "apparent elimination half-life of metabolite", "setting": "[6]", "value": "approximately 35 hours"}]}
{"molecule": "Fc1ccc([C@@H]2CCNC[C@H]2COc2ccc3c(c2)OCO3)cc1", "note": "[paroxetine]", "values": [{"measurement": "increase in overall exposure when co-administered with the subject combination", "setting": "[9]", "value": 1.2, "unit": "fold"}]}
{"molecule": "C[C@H](NC(C)(C)C)[C@@H](O)c1cccc(Cl)c1", "note": "[threohydroxybupropion]", "values": [{"measurement": "AUC0-12 relative to that of bupropion", "setting": "[6]", "value": "about 7 times"}, {"measurement": "Cmax relative to that of bupropion", "setting": "[6]", "value": "about 5 times"}, {"measurement": "time post-dose at which Cmax of the metabolite occurs", "setting": "[6]", "value": "approximately 4 hours"}, {"measurement": "apparent elimination half-life of metabolite", "setting": "[6]", "value": "~33", "unit": "h"}]}
